Measurements taken from patent US20200071310A1, “N-ARYL PYRAZOLES AS NRF2 REGULATORS” (GLAXOSMITHKLINE INTELLECTUAL PROPERTY DEVELOPMENT LIMITED, priority 2016, published 2020).
Where two headings read alike, the source gives them in different places.

Tests used:
[1] = molecular target: T1, Keap1 (321-609) Kelch domain / TAMRA-labeled NRF2 peptide (ETGE motif) (Homo sapiens, UniProt Q14145); experiment: NRF2-Keap1 FP Assay; type: binding; conditions: Keap1 (321-609) 20 nM, Tamra labeled peptide 8 nM
T1 construct: the Kelch domain (321-609) of Keap1 is used
T1 sequence (Q14145 321-609): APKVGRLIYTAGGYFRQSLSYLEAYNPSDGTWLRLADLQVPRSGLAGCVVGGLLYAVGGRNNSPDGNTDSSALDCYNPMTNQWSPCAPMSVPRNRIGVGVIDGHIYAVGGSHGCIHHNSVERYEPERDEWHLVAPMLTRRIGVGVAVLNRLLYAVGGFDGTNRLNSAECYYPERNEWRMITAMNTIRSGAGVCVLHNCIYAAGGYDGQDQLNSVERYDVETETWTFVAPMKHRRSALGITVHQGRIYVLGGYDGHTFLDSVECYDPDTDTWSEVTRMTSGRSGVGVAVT
Source text: One model for the NRF2-Keap1 interaction is through two binding sites in the Neh2 domain on NRF2. The two sites are referred to as the DLG binding motif (latch domain, uM affinity) and the ETGE binding motif (hinge domain, nM affinity). The Keap1 protein consists of an N-terminal region (NTR), a broad complex, tramtrack, and brick a' brac domain (BTB), an intervening region (IVR), a double glycine repeat domain (DGR or Kelch), and a C-terminal region. The DLG and ETGE motifs of NRF2's Neh2 domain bind to the Kelch domain of Keap1 at different affinities. In the Keap1 Kelch fluorescence polarization (FP) assay, a TAMRA-labeled 16mer peptide (AFFAQLQLDEETGEFL) containing the ETGE motif of NRF2 and the Kelch domain (321-609) of Keap1 is used. The assay determines if a compound interferes with the binding between Keap1 […] and the TAMRA-labeled peptide. Binding of TAMRA-labeled NRF2 peptide to Keap1 (321-609) results in a high FP signal. If a compound interferes with the binding between the peptide and the protein, it will cause the assay signal to decrease. Thus, assay signal is inversely proportional to binding inhibition.
100 nl of 100× compound dose response curves (serial 3-fold dilutions) in DMSO were stamped using an Echo liquid handling system (Labcyte) into 384-well low volume black assay plates (Greiner, #784076), with DMSO in columns 6 and 18. The top concentration of compound was located in columns 1 and 13. Keap1 (321-609) was diluted to 40 nM (2×) in 1× assay buffer (50 mM Tris, pH 8.0, 100 mM NaCl, 5 mM MgCl2, 1 mM DTT, 2 mM CHAPS, and 0.005% BSA) and 5 ul was added using a Multidrop Combi (Thermo Electron Corporation) equipped with a metal tip dispenser to all wells of the compound plate, except column 18. Column 18 received only 5 ul of assay buffer. Immediately, 5 uL of 16 nM (2×) of Tamra labeled peptide (AFFAQLQLDEETGEFL, 21st Century Biochemicals) was added to all wells of the plate. The plates were spun at 500 rpm for 1 min, incubated for 1 hr at room temperature, and read on an Analyst GT (Molecular Devices) equipped with excitation (530/25 nm) and emission (580/10 nm) filters designed for Tamra probes. A 561 nm dichroic mirror was also used in the Analyst. The final assay concentrations of Keap1l (321-609) and Tamra labeled peptide were 20 nM and 8 nM, respectively. Fluorescence measurements, represented as mP, were used in the transformation of the data. Compound activity was calculated based on percent inhibition, normalized against controls in the assay (Control 1 contains the Tamra peptide and Keap1 (321-609) together (0% response) and control 2 contains the Tamra peptide alone (100% response)). Data analysis was handled using the software package Abase XE (Surrey, United Kingdom. The % inhibition values were calculated by the equation:
100−(100*((compound response−average control 2)/(average control 1−average control2))).
For calculation of pIC50s, Abase XE used a four parameter equation.
IC50s<1 nM (+++++), IC50s 1 nM-10 nM (++++), IC50s 10-100 nM (+++), IC50s 100 nM-1 μM (++), IC50s 1-10 μM (+), IC50s>10 μM (−), or were not determined (ND).

[2] = test system: NQO1 specific enzyme activity in BEAS-2B cells; experiment: BEAS-2B NQO1 MTT Assay; type: cell-based; conditions: Homo sapiens
Source text: NAD(P)H:quinone oxidoreductase 1 (NQO1), also called DT diaphorase, is a homodimeric FAD-containing enzyme that catalyzes obligatory NAD(P)H-dependent two-electron reductions of quinones and protects cells against the toxic and neoplastic effects of free radicals and reactive oxygen species arising from one-electron reductions. The transcription of NQO1 is finely regulated by NRF2, and thus NQO1 activity is a good marker for NRF2 activation. On day one, frozen BEAS-2B cells (ATCC) were thawed in a water bath, counted, and re-suspended at a concentration of 250,000 cells/mL. Fifty microliters of cells were plated in 384 well black clear-bottomed plates. Plates were incubated at 37° C., 5% CO2 overnight. On day two, plates were centrifuged and 50 nL of compound or controls were added to the cells. Plates were then incubated at 37° C., 5% CO2 for 48 hours. On day four, medium was aspirated from the plate and crude cell lysates were made by adding 13 uL of 1× Cell Signaling Technologies lysis buffer with 1 Complete, Mini, EDTA-free Protease Inhibitor Tablet (Roche) for each 10 mL of lysis buffer. After lysis plates were incubated for 20 minutes at room temperature. Two microliters of lysate were removed for use in Cell Titer Glo assay (Promega) and MTT cocktail was prepared (Prochaska et. al. 1998) for measurement of NQO1 activity. Fifty microliters of MTT cocktail is added to each well, plate is centrifuged, and analyzed on an Envision plate reader (Perkin Elmer) using Absorbance 570 nm label for 30 minutes. Product formation was measured kinetically and the pEC50 of NQO1 specific activity induction was calculated by plotting the change in absorbance (Delta OD/min) versus the log of compound concentration followed by 3-parameter fitting. pEC50 is the negative log of the EC50.

[3] = NQO1 specific activity induction, BEAS-2B cells, 48 hours, read-out: EC50

SMILES	EC50 [1]	EC50 [2, 3]	EC50 ([2]; BEAS-2B, 48 h)
CC[C@@H]1CN(Cc2cccc(-n3ncc(C(=O)O)c3[C@@H]3C[C@H]3c3cn(C)nn3)c2)Cc2ccccc2O1 (racemic) [Example 14]	0.1 to 1 µM		1 to 10 µM
C[C@H]1Cc2ccc(C(F)(F)F)cc2S(=O)(=O)N(Cc2cccc(-n3ncc(C(=O)O)c3[C@@H]3C[C@H]3c3cn(C)nn3)c2)C1 (racemic) [Example 16, 1-(3-((4-methyl-1,1-dioxido-8-(trifluoromethyl)-4,5-dihydro-benzo[f][1,2]thiazepin-2(3H)-yl)methyl)phenyl)-5-((trans)-2-(1-methyl-1H-1,2,3-triazol-4-yl)cyclopropyl)-1H-pyrazole-4-carboxylic acid]	0.001 to 0.01 µM	0.1 to 1 µM	
C[C@@H]1Cc2cc(C(F)(F)F)ccc2S(=O)(=O)N(Cc2cccc(-n3ncc(C(=O)O)c3[C@@H]3C[C@H]3c3cn(C)nn3)c2)C1 (racemic) [Example 18, 1-(3-((4-methyl-1,1-dioxido-7-(trifluoromethyl)-4,5-dihydro-benzo[f][1,2]thiazepin-2(3H)-yl)methyl)phenyl)-5-((trans)-2-(1-methyl-1H-1,2,3-triazol-4-yl)cyclopropyl)-1H-pyrazole-4-carboxylic acid]	0.001 to 0.01 µM	0.01 to 0.1 µM	
C[C@H]1Cc2cc(C(F)(F)F)ccc2S(=O)(=O)N(Cc2cccc(-n3ncc(C(=O)O)c3[C@@H]3C[C@H]3c3cn(C)nn3)c2)C1 (racemic) [Example 19, 1-(3-((4-methyl-1,1-dioxido-7-(trifluoromethyl)-4,5-dihydro-benzo[f][1,2]thiazepin-2(3H)-yl)methyl)phenyl)-5-((trans)-2-(1-methyl-1H-1,2,3-triazol-4-yl)cyclopropyl)-1H-pyrazole-4-carboxylic acid]	0.1 to 1 µM	1 to 10 µM	
CCCCCCN(Cc1cccc(-n2ncc(C(=O)O)c2[C@@H]2C[C@H]2c2cn(C)nn2)c1)S(=O)(=O)c1cccc(-c2ccccc2)c1 (racemic) [Example 34, 1-(3-((N-hexyl-[1,1′-biphenyl]-3-ylsulfonamido)methyl)phenyl)-5-((trans)-2-(1-methyl-1H-1,2,3-triazol-4-yl)cyclopropyl)-1H-pyrazole-4-carboxylic acid]	0.001 to 0.01 µM	0.01 to 0.1 µM	
CCCCCCN(Cc1cccc(-n2ncc(C(=O)O)c2[C@@H]2C[C@H]2c2cn(C)nn2)c1)S(=O)(=O)c1ccccc1C (racemic) [Example 37, 1-(3-((N-hexyl-2-methylphenylsulfonamido)methyl)phenyl)-5-((trans)-2-(1-methyl-1H-1,2,3-triazol-4-yl)cyclo-propyl)-1H-pyrazole-4-carboxylic acid]	0.01 to 0.1 µM	0.01 to 0.1 µM	
COc1ccc(Cl)cc1S(=O)(=O)N(C)Cc1cccc(-n2ncc(C(=O)O)c2[C@@H]2C[C@H]2c2cn(C)nn2)c1 (racemic) [Example 40, 1-(3-((5-chloro-2-methoxy-N-methylphenyl-sulfonamido)-methyl)phenyl)-5-((trans)-2-(1-methyl-1H-1,2,3-triazol-4-yl)cyclo-propyl)-1H-pyrazole-4-carboxylic acid]	0.1 to 1 µM	1 to 10 µM	
Cc1ccccc1S(=O)(=O)N(C)Cc1cccc(-n2ncc(C(=O)O)c2[C@@H]2C[C@H]2c2cn(C)nn2)c1 (racemic) [Example 42, 1-(3-((N,2-dimethylphenylsulfonamido)methyl)phenyl)-5-((trans)-2-(1-methyl-1H-1,2,3-triazol-4-yl)cyclopropyl)-1H-pyrazole-4-carboxylic acid]	0.1 to 1 µM	1 to 10 µM	

Further lines, with some results ahead:

EC50 [1]	SMILES	EC50 [2, 3]	EC50 ([2]; BEAS-2B, 48 h)
0.001 to 0.01 µM	Cn1cc([C@@H]2C[C@H]2c2c(C(=O)O)cnn2-c2cccc(CN3CC(C)(C)Oc4ccc(F)cc4S3(=O)=O)c2)nn1 (racemic) [Example 5]	1 to 10 µM	
0.01 to 0.1 µM	Cn1cc([C@@H]2C[C@H]2c2c(C(=O)O)cnn2-c2cccc(CN3Cc4ccccc4CC(C)(C)C3)c2)nn1 (racemic) [Example 7]	0.1 to 1 µM	
0.01 to 0.1 µM	Cn1cc([C@@H]2C[C@H]2c2c(C(=O)O)cnn2-c2cccc(CN3Cc4ccccc4OC(C)(C)C3)c2)nn1 (racemic) [Example 8]	1 to 10 µM	
0.01 to 0.1 µM	Cn1cc([C@@H]2C[C@H]2c2c(C(=O)O)cnn2-c2cccc(CN3Cc4ncccc4OC(C)(C)C3)c2)nn1 (racemic) [Example 9]	0.1 to 1 µM	
0.001 to 0.01 µM	Cn1cc([C@@H]2C[C@H]2c2c(C(=O)O)cnn2-c2cccc(CN3Cc4cc(Br)ccc4OC(C)(C)C3)c2)nn1 (racemic) [Example 13]	0.1 to 1 µM	
0.001 to 0.01 µM	C[C@H]1Cc2ccc(Br)cc2S(=O)(=O)N(Cc2cccc(-n3ncc(C(=O)O)c3[C@@H]3C[C@H]3c3cn(C)nn3)c2)C1 (racemic) [Example 17, 1-(3-((8-bromo-4-methyl-1,1-dioxido-4,5-dihydrobenzo[f][1,2]thiazepin-2(3H)-yl)methyl)phenyl)-5-((trans)-2-(1-methyl-1H-1,2,3-triazol-4-yl)cyclopropyl)-1H-pyrazole-4-carboxylic acid]	0.1 to 1 µM	
0.001 to 0.01 µM	Cn1cc([C@@H]2C[C@H]2c2c(C(=O)O)cnn2-c2cccc(Cn3ccnc3CC3CCCCCC3)c2)nn1 (racemic) [Example 23]	0.1 to 1 µM	
0.01 to 0.1 µM	Cn1cc([C@@H]2C[C@H]2c2c(C(=O)O)cnn2-c2cccc(Cn3ccnc3CN3CCCCC3)c2)nn1 (racemic) [Example 24]	1 to 10 µM	
0.01 to 0.1 µM	CN(Cc1cccc(-n2ncc(C(=O)O)c2[C@@H]2C[C@H]2c2cn(C)nn2)c1)S(=O)(=O)c1cccc(Oc2ccccc2)c1 (racemic) [Example 35, 5-((trans)-2-(1-methyl-1H-1,2,3-triazol-4-yl)cyclo-propyl)-1-(3-((N-methyl-3-phenoxy-phenyl-sulfonamido)-methyl)phenyl)-1H-pyrazole-4-carboxylic acid]	1 to 10 µM	
0.1 to 1 µM	CN(Cc1cccc(-n2ncc(C(=O)O)c2[C@@H]2C[C@H]2c2cn(C)nn2)c1)S(=O)(=O)c1c(Cl)cccc1C(F)(F)F (racemic) [Example 41, 1-(3-((2-chloro-N-methyl-6-(trifluoro-methyl)phenyl-sulfonamido)-methyl)phenyl)-5-((trans)-2-(1-methyl-1H-1,2,3-triazol-4-yl)cyclo-propyl)-1H-pyrazole-4-carboxylic acid]	1 to 10 µM	
